Drawing on ChEMBL document CHEMBL3397032, “Computer-aided discovery of aminopyridines as novel JAK2 inhibitors” (Bioorg Med Chem, 2015), this text covers IC50 and Activity for four molecules.

The target in assay [1] is Tyrosine-protein kinase JAK2 (Homo sapiens, UniProt O60674). As to the kind of experiment: Inhibition of IL4-induced JAK2 autophosphorylation in human HT-29 cells by SDS-polyacrylamide gel electrophoresis and Western blot method. Type of assay: cell-based. Background: In western blotting, separated proteins are transferred to a membrane and probed.
Another assay concerns HT-29. As to the kind of experiment: Effect on total JAK2 protein level in IL4-induced human HT-29 cells at 1 uM to 100 uM by SDS-polyacrylamide gel electrophoresis and Western blot method. Type of assay: functional, cell-based.

The source made the active and inactive calls. No cut-off for these calls is given here.

Chain of Tyrosine-protein kinase JAK2 (O60674 whole entry): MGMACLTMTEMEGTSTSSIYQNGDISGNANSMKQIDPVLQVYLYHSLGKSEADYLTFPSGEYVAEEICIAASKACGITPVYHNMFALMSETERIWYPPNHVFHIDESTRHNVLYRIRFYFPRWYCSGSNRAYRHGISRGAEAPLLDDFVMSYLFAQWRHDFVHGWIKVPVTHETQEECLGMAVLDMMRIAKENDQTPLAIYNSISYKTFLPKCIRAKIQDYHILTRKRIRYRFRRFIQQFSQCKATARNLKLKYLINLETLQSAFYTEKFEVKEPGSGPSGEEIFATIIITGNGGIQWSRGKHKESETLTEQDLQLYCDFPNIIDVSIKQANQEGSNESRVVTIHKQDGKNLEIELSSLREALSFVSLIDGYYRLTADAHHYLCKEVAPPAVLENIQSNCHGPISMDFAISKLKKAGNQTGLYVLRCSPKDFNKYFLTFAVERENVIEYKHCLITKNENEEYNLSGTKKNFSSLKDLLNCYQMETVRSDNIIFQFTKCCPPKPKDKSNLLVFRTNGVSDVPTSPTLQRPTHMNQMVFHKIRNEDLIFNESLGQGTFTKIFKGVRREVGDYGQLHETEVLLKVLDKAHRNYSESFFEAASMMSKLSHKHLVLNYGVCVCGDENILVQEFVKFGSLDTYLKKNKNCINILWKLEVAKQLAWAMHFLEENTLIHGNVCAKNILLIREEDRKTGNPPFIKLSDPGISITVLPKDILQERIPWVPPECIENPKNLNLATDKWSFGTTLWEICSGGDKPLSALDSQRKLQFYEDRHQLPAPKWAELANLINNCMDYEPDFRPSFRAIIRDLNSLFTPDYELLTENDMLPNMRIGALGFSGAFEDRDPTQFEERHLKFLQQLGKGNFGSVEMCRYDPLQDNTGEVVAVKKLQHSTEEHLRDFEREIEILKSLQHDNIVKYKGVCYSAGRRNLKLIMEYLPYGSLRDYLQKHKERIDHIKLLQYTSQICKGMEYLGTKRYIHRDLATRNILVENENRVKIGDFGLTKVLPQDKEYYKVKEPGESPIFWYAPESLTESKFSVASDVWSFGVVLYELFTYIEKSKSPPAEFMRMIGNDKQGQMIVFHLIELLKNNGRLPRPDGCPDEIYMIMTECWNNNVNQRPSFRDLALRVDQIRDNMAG

Regarding `COc1cccc(NC(=O)c2cnc(N3CCN(c4ccccc4OC)CC3)c([N+](=O)[O-])c2)c1`, the IC50 (commonly the concentration at which inhibition is half-maximal) in assay [1] is 9.5 µM. Also, the outcome in the assay with HT-29 was inactive.
As to `CCCCN(C)c1ncc(NS(=O)(=O)c2ccccc2C)cc1C(=O)O`, in the assay with HT-29, the result was inactive.
In the case of `COc1cccc(NC(=O)c2cnc(Nc3cccc(OC)c3)c([N+](=O)[O-])c2)c1`, the IC50 in assay [1] came out at 8.5 µM. Moreover, in the assay on HT-29, the result was inactive.
For `Cc1ccccc1S(=O)(=O)Nc1cnc(N2CCCCC2)c(C(=O)O)c1`, 6.9 µM corresponded to half-maximal inhibition in assay [1] (IC50). In the assay on HT-29, the outcome was inactive.
